The values below come from PMC9026853, “Design, Physicochemical Characterization, and In Vitro Permeation of Innovative Resatorvid Topical Formulations for Targeted Skin Drug Delivery” (Pharmaceutics, 2022).

A short description of series [1]: Residual water content by Karl Fisher coulometric titration. The format is physicochemical. Conditions: KFT, n = 4, mean ± SD, Table S2. The protocol:
The residual water content of raw resatorvid powder was quantified by coulometric KFT using a TitroLine 750 trace titrator (SI Analytics, Weilheim, Germany). In brief, 1 mL of 0.1% (w/v) of resatorvid in anhydrous methanol was added to the titration cell containing Hydranal® Coulomat AD reagent.

A short description of series [2]: Particle sizing by SEM image analysis. The format is physicochemical. The text has this: The particle size and surface morphology of raw resatorvid were obtained using scanning electron microscopy (SEM) (FEI, Brno, Czech Republic). The samples were sprinkled onto the double-sided adhesive carbon tabs (Ted Patella, Inc. Redding, CA, USA), which were adhered to aluminum stubs and coated with a 7 nm thin film of gold palladium alloy, using an Anatech Hummer 6.2 (Union City, CA, USA) sputtering system at 20 µA for 90 s under an argon plasma. The electron beam with an accelerating voltage of 30 kV was used at a working distance of approximately 9–12 mm. The SEM images were collected at various magnifications.
Using SEM micrographs, the mean size, standard deviation, and size range of the particles were determined digitally using SigmaScan^TM Pro 5.0.0 (Systat, Inc., San Jose, CA, USA). Representative micrographs of raw resatorvid at 400–5000× magnification were analyzed by measuring the diameter of at least 60 particles per sampling.

The next series has as its system HaCaT cells. As to the kind of experiment: In vitro cell dose-response (resazurin viability) in 2D culture, HaCaT. The format is cell-based, human. Conditions: for toxicity to HaCaT cells: 0.01-1000 µM raw resatorvid, 72 h exposure as printed in results. The protocol: (§1) The effects of raw resatorvid on the viability of human representative keratinocyte cell lines exposed to concentrations at 1000 μM, 100 μM, 10 μM, 1 µM, 0.1 µM, and 0.01 µM were tested. HaCaT cells (a human transformed keratinocyte from a histologically normal skin cell line) and primary NHEKs (normal human epidermal keratinocyte cells) were used as models of the human epidermis, which generates keratinocytes in the stratum basale and then differentiates into the final barrier layer of the skin, the stratum corneum. The HaCaT cells were grown in Dulbecco’s modified Eagle’s medium (DMEM), Optimized 1×, 10% (v/v) FBS, and Pen-Strep (100 units/mL penicillin, 100 µg/mL) in a humidified incubator at 37 °C and 5% CO2. The NHEK cells were grown in an NHEK growth medium provided by MatTek (Ashland, MA, USA) in a humidified incubator at 37 °C and 5% CO2.
(§2) After confluence, the HaCaT and NHEK cells were seeded in a black 96-well plate at a concentration of 5000 cells in 100 µL of media/well, then incubated for 48 h to allow attachment to the surface of the plates. After 48 h, the cells were then exposed to the different concentrations of resatorvid previously mentioned. The drug solutions were prepared by dissolving raw resatorvid powder in 5% (v/v) DMSO and adequate growth medium to make a solution at 1×. A volume of 100 µL of drug solution was added to each well. […] The fluorescence intensity of resorufin was detected at 544 nm (excitation) and 590 nm (emission) using the Molecular Devices® SpectraMax® M3 Multi-Mode Microplate Reader (Sunnyvale, CA, USA). The relative viability of the cells was calculated as followed by Equation (1):(1) Relative Viability %=Sample flourescence intensity/Control flourescece intensity×100%

Assay in series [3]: as above
The following applies: human, HaCaT cells (transformed keratinocytes), 2D culture; concentrations at 0.01 µM and 0.1 µM. The format is cell-based, human. The protocol: as §1, §2

Details of series [4]: method as in PMID 29437671. Conditions: standardized Franz cell system; cited from earlier work.
Series [5] can be described thus: In vitro oil-water partitioning coefficient (Log-P), 1-octanol/PBS, HPLC. The format is physicochemical. The following applies: for Experimental (Log-P): n = 3, mean ± SD; for partition coefficient (Log-P), range over pH: pH 6.5, 7.1, 8.8. The protocol: The HPLC consisted of a Shimadzu LC-2010A HT liquid chromatograph (Torrance, CA, USA), coupled with a UV–Vis dual wavelength detector. The analysis was performed by a reverse-phase HPLC assay, using a Luna C18, 5 μm column (250 mm × 2 mm) (Phenomenex, Torrance, CA, USA), maintained at 25 °C ± 2 °C. Ultraviolet detection was done at 254 nm. The mobile phase conditions were 50:50 (v/v) acetonitrile: trifluoroacetic acid (0.1% v/v) at a flow rate of 0.3 mL/min. The injection volume was 10 µL. The retention time for resatorvid was ~15.9 min. Quantification was determined using peak area and calculated from a five-point standard curve (0.0625 mg/mL to 1 mg/mL, R^2 = 0.9971). Standards were prepared by volumetric dilution in acetonitrile and stored at 4 °C, protected from light. The modifications made to the method were using a column length of 250 mm × 2 mm instead of 150 mm × 2.1 mm and a mobile phase of 50:50 (v/v) acetonitrile: trifluoroacetic acid (0.1% v/v) instead of 40:60 (v/v) acetonitrile: trifluoroacetic acid (0.1% v/v) as previously reported.
Resatorvid raw powder was weighed out (0.003 g) and placed in 2 dram amber-colored glass vials containing equal volumes (1.5 mL) of 1-octanol and PBS (1×, pH = 7.4) to make a 1 mg/mL solution. Various solutions were made, and the pH was adjusted and maintained at pH values of 6.5, 7.1, 8.8. Adjustments to the pH were made using 0.1 M hydrochloric acid (HCl) solution and 0.1 M sodium hydroxide (NaOH) solution. […] The vials were rotated using a Barnstead/Thermolyne Labquake shaker (Dubuque, IA, USA) for 24 h and left undisturbed in a vertical position for an additional 24 h for phase separation between the aqueous and non-aqueous layers. Then, 200 μL of the organic and aqueous layers were sampled very carefully without disturbing the separation of phases and analyzed via the HPLC method previously mentioned.

For series [6], the system named is primary normal human epidermal keratinocytes (NHEKs). The series is described as follows: In vitro cell dose-response (resazurin viability) in 2D culture, NHEK. The format is cell-based. Conditions: 0.01-1000 µM raw resatorvid, 72 h exposure as printed in results. On the procedure:
as §1, §2

Assay in series [7]: as above
The format is cell-based, human. Conditions: human; all concentrations (0.01-1000 µM); read-out: viability of NHEK cells. On the procedure: as §1, §2

A further series relates to SKH-1 mice. More on the design: method as in PMID 29437671. Conditions: topical, cited from earlier work.
For series [8] the following is noted: method and reference not given; cited from earlier work.

Several values for one entry are separate records, joined by “and”; a condition that tells them apart may be missing. Equal values may be shown once.

Turning to `CCOC(=O)C1=CCCC[C@H]1S(=O)(=O)Nc1ccc(F)cc1Cl` [resatorvid, ethyl (6R)-6-[N-(2-Chloro-4-fluorophenyl)sulfamoyl]cyclohex-1-ene-1-carboxylate], the “Residual Water content” value in series [1] stood at 0.0173 ± 0.0156 %w/w. Moreover, the “average geometric (linear) size of the raw particles” value in series [2] was 5.84 µm. Also, the “toxicity to HaCaT cells” value is reported as “negligible toxicity” in the series with HaCaT cells and “did not show any significant toxicity” with HaCaT cells (listed as Resatorvid). For the same compound, the “effect on HaCaT cells at higher concentrations” value in the series with HaCaT cells (concentration increased from 1 µM to 1000 µM) is listed as “cell proliferation was observed”. Further, the viability at 48 h in series [3] and in [7] was about 100% each time. In addition, the amount of resatorvid in the lower epidermis (tape strips 4–12), average over time course in [4] is 5 µg/cm^2. In addition, the “time remaining in the skin” value in series [4] was “at least 8 hr”. For the same compound, the “Experimental (Log-P)” value in series [5] (At 35 °C, pH = 6.5, 1-octanol/PBS) was 1.65 ± 0.029; in series [5] (At 35 °C, pH = 7.1), 1.68 and 1.68 ± 0.013; in series [5] (At 35 °C, pH = 8.8), 0.94 ± 0.023; in [5] (At Room temperature/ambient temperature, pH = 6.5), 1.58 ± 0.019; in [5] (At Room temperature/ambient temperature, pH = 7.1) it was 1.54 ± 0.149; in series [5] (At Room temperature/ambient temperature, pH = 8.8), 0.88 ± 0.060. Besides, the “partition coefficient (Log-P), range over pH” value is 0.94–1.68 in [5] (at 35 °C) and 0.88–1.58 in series [5] (at room/ambient temperature). Moreover, the “toxicity to NHEK cells” value was “negligible toxicity” in series [6] and “did not show any significant toxicity” in [6] (listed as Resatorvid). Further, the “modulation of UV-induced biomarkers” value in the series on SKH-1 mice (acetone solution of TAK-242 (13 mM), SKH-1 mice) was “successfully modulated UV-induced biomarkers”. In addition, the “UV-induced AP-1 activation” value with SKH-1 mice (mice) is listed as “reduces UV-induced AP-1 activation”. The photocarcinogenesis entry in the series with SKH-1 mice (mice) was “inhibits photocarcinogenesis”. Moreover, the “experimentally determined pKa reported” value in series [8] was 8.0–8.1.
